Assay results published in the NIST ThermoML archive (doi:10.1021/je1012229).
Numbers after ± are expanded uncertainties.

Conditions: 101.33 kPa, Liquid, Vibrating tube method

CCCCn1cc[n+](C)c1.F[P-](F)(F)(F)(F)F [1-butyl-3-methylimidazolium hexafluorophosphate]
Conditions | mass density [kg/m3]
283.15 K | 1380.2 ± 0.7
293.15 K | 1372 ± 0.7
303.15 K | 1362.6 ± 0.7
313.15 K | 1354.1 ± 0.7
323.15 K | 1345.7 ± 0.7
333.15 K | 1339.1 ± 0.7
343.15 K | 1331.7 ± 0.7
353.15 K | 1323.4 ± 0.7
363.15 K | 1314.2 ± 0.6
